These results are taken from patent publication US9150555B2, “Amide derivative and use thereof” (Mitsubishi Tanabe Pharma Corporation, priority 2010, dated 2015).

One data set addresses hERG (Homo sapiens, UniProt Q12809). The data set can be described thus: Effects on hERG current (whole-cell clamping). Conditions: human, HEK 293 cells that express hERG, pH 7.4, hERG inhibition rate (%) (1 μM), 1 μM; tail peak current; hERG-expressed HEK 293 cells.
Data set [1] deals with IL-17 production of mouse spleen cells stimulated by rm-IL-23. Briefly: Production of IL-17 induced when mouse spleen cells were stimulated by recombinant mouse interleukin-23 (rm-IL-23). Format: cell-based. Conditions: Mus musculus, 72 h, inhibition of IL-17 production, DBA/1J mouse spleen cells, rm-IL-23 1 nmol/L, ELISA. How it is done:
Effect on Production of IL-17 Induced when Mouse Spleen Cells were Stimulated by Recombinant Mouse Interleukin-23 (rm-IL-23)
An RPMI1640 (Sigma-Aldrich) was used as a medium, to which penicillin G potassium (50 units/mL; Gibco), streptomycin (50 μg/mL; Gibco) and 2-mercaptoethanol (50 μmol/l; Sigma-Aldrich) were added, and then 10% of fetal calf serum (FCS; Cell Culture Technology) inactivated at 56° C. for 30 minutes was added and used in the Test. The test compound was dissolved in dimethylsulfoxide and diluted with 10% FCS-containing RPMI1640 medium to a desired concentration and used in the test. The spleens were aseptically taken out from 6-7 week-old male DBA/1J mice (Charles River Japan, Inc.) and a single cell suspension of spleen cells was prepared and hemolyzed by hypotonic treatment with a mixture of 0.83% aqueous solution of ammonium chloride and Tris-HCl buffer of pH 7.65 (9:1). A cell suspension prepared by 10% FCS-containing RPMI1640 medium was added to flat-bottomed 96 well microtestplate at 2×10^5 cells/well. Test compounds and rm-IL-23 (R&D systems) were diluted with a medium to 1 to 1,000 nmol/L, and 1 nmol/L of the final concentration respectively, which were added and cultured at 37° C., 5% carbon dioxide and 95% air for 72 hours. After completion of the culture, culture supernatant was sampled and an amount of IL-17 production was determined by ELISA method. After sampling the supernatant, WST-8 (Seikagaku Corporation) was added at 10 μl/well and cultured at 37° C., 5% carbon dioxide and 95% air for 4 hours. Then, absorbance (O.D.: Optical Density) at 450 nm was measured by a microplate reader and the value was adopted as an index of cell survivability. An inhibition rate (%) was calculated according to the following formula on the basis of an average of an amount of IL-17 production and a O.D. values of the well containing a test compound of each concentration.
Based on the dose-response curve obtained by plotting the inhibition rate in the longitudinal axis and concentration in the horizontal axis, the concentration of the compound which inhibits the level to 50% of the value of the control group (IC50; nmol/L) was determined by linear regression analysis. The results was shown in the next Table 1
In general terms: ELISA stands for enzyme-linked immunosorbent assay.

Sequence of hERG (Q12809 whole entry): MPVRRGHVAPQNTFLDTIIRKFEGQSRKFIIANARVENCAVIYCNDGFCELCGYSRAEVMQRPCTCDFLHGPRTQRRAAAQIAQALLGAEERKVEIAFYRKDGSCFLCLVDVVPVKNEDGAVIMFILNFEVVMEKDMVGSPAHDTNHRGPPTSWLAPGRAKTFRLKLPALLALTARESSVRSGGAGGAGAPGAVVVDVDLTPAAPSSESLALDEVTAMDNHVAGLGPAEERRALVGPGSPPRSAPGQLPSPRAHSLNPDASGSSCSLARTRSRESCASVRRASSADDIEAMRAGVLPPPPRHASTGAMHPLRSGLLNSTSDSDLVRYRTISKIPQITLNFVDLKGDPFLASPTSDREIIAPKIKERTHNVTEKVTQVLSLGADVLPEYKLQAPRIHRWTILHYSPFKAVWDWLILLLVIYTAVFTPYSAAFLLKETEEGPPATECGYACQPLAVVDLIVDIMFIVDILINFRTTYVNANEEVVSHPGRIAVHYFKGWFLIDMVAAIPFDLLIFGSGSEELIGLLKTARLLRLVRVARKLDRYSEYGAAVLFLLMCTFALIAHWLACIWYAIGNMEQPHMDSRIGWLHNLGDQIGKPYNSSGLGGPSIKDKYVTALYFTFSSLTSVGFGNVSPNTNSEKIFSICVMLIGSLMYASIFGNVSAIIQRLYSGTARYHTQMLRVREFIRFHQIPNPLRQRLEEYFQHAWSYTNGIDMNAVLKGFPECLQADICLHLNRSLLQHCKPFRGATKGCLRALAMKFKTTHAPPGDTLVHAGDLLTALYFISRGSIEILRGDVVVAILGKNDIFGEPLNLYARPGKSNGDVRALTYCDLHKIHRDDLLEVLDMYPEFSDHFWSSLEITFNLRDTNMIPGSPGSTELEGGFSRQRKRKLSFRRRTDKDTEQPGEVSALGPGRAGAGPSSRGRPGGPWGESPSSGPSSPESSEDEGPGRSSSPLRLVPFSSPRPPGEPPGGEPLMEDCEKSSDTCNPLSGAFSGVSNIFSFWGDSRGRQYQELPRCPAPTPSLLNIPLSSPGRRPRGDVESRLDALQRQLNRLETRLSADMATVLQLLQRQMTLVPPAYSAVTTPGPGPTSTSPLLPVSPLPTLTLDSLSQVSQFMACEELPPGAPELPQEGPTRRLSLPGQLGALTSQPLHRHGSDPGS
Experimental for hERG: Dimethylsulfoxide was used as a vehicle and hERG-expressed HEK 293 cells (Cytomyx) were used as test cells. Test cells were once cultured and subdivided and were stored under frozen condition in liquid nitrogen. In the study, thawed and subcultured cells having less than 30 of the passage number were used. Test cells were cultured in a carbon dioxide incubator BNP-110M (Tabai Espec Corp.) at 37±1° C., and 5.0±0.5% of carbon dioxide concentration. The component of culture medium was MEM (Minimum Essential Medium) supplemented with 10 vol % fetal bovine serum (non-activated), 1 mmol/L sodium pyruvate, 0.1 mmol/L non-essential amino acid, 100 U/mL penicillin with 100 μg/mL streptomycin. To select gene-expressing cells, 400 μg/mL G418 Sulphate (Invitrogen) was added to the culture medium. In the dishes for the measurement, the medium which not contain G418 Sulphate (Invitrogen) was used.
As to seeding of cells for measurement, subcultured cells which became confluent were treated with 0.25% trypsin-solution containing 1 mmol/L EDTA (Invitrogen) to remove from the plate, and seeded on sterilized collagen-coated cover glass (Iwaki, AGC Techno Glass Co., LTD). The medium was exchanged appropriately, including the day of measurement.
A perfusion method was applied to the experiment. Test cells were perfused (perfusion speed: approximately 4 mL/min) with an external solution containing specified concentrations of test compounds (component of external solution: 137 mmol/L of sodium chloride, 4 mmol/L of potassium chloride, 10 mmol/L of HEPES, 1.8 mmol/L of calcium chloride, 1 mmol/L of magnesium chloride and 10 mmol/L of glucose; adjusted to pH 7.4±0.1 with sodium hydroxide aqueous solution). […] When effects were observed, the perfusion was continued until the maximum response was observed. […] The data were obtained from one experiment or more and the cells which were incubated in a carbon dioxide incubator after seeding and attached to cover slips were used for the measurement.
A whole-cell clamping method was applied to the measurement. Test cells were perfused (perfusion speed: approximately 4 mL/min) with an external solution (component of external solution: 137 mmol/L of sodium chloride, 4 mmol/L of potassium chloride, 10 mmol/L of HEPES, 1.8 mmol/L of calcium chloride, 1 mmol/L of magnesium chloride and 10 mmol/L of glucose; adjusted to pH 7.4±0.1 with sodium hydroxide aqueous solution). A glass electrode with a resistance of 2 to 6 MΩ, filled with an internal solution (component: 130 mmol/L of potassium chloride, 1 mmol/L of magnesium chloride, 5 mmol/L of EGTA, 10 mmol/L of HEPES and 5 mmol/L of ATP adjusted to pH 7.2±0.1 with sodium hydroxide aqueous solution) was used. After rupturing cell membrane with glass electrode, the cell membrane voltage was held at −80 mV via a patch clamp software (pCLAMP9 [Axon CNS], Molecular Devices) using patch clamp amplifier (EPC8, HEKA). […] Test cells and the cell-attached cover glass were changed every treatment. Temperature of the fluid in a perfusion fluid tank was 24±2° C.
The obtained current was recorded on a computer via a patch clamp amplifier using patch clamp software. An evaluation item was a tail peak current.
A tail peak current was analyzed using analyzing software (Clampfit 9 [Axon CNS], MolecularDevices). Each 2 pulses of before and after perfusion of test compound for each concentration was analyzed, and a peak values of the tail current on the pulses were determined. The inhibition ratio was determined according to the following equation:

For `Cc1c(C(=O)Nc2ccc(C3CCC4(CC3)OCCO4)nc2)cnn1-c1ccc(C(C)(C)C)cc1` [Example D165], the inhibition (in general, the percentage by which the read-out fell short of the control) at 1 µM against hERG amounted to 8.9%. The IC50 (in general, the point on the concentration scale where inhibition reaches its midpoint) in data set [1] was 44 nM.
The corresponding values for `Cc1cc(NC(=O)c2cnn(-c3ncc(C(F)(F)F)cc3Cl)c2C)cnc1C1=CCC(N2CCOCC2)CC1` (stereo not shown) [Example D175] are 31.7% and 49.8 nM.
The corresponding values for `Cc1cc(NC(=O)c2cnn(-c3ncc(C4CC4)cc3F)c2C)cnc1C1=CCC(N2CCOCC2)CC1` (stereo not shown) [Example D177] are 13% and 66 nM.
With `Cc1cc(NC(=O)c2cnn(-c3ncc(C(F)(F)F)cc3C)c2C)cnc1C1=CCC(N2CCOCC2)CC1` (stereo not shown) [Example D188], the inhibition at 1 µM at hERG was determined as 40%. Also, the 50% inhibitory concentration (IC50) in data set [1] came out at 86.3 nM.
`Cc1cc(NC(=O)c2cnn(-c3ccc(C4CC4)cn3)c2C)cnc1C1=CCN(C2CCOC2C)CC1` (stereo not shown) [Example D191] came in with an inhibition at 1 µM against hERG of 47.6%. The IC50 in data set [1] came to 58.4 nM.
Consider `Cc1cc(NC(=O)c2cnn(-c3ncc(C(F)(F)F)cc3F)c2C)cnc1C1CCC2(CC1)OCCO2` [Example D196, N-[6-(1,4-Dioxaspiro[4.5]dec-8-yl)-5-methylpyridin-3-yl]-1-[3-fluoro-5-(trifluoromethyl)pyridin-2-yl]-5-methyl-1H-pyrazole-4-carboxamide], for which the inhibition at 1 µM on hERG came to 13.6%. Moreover, the IC50 in data set [1] was 54.6 nM.
At hERG, `COc1cc(C(F)(F)F)cnc1-n1ncc(C(=O)Nc2cnc(C3CCC4(CC3)OCCO4)c(C)c2)c1C` [Example D197] yielded an inhibition at 1 µM of 0.8%. Further, in data set [1], the IC50 worked out at 123 nM.
The corresponding values for `Cc1cc(NC(=O)c2cnn(-c3ccc(C(C)C)cn3)c2C)cnc1C1=CCC(N2CCOCC2)CC1` (stereo not shown) [Example D200] are 47.6% and 58.4 nM.
Turning to `Cc1cc(NC(=O)c2cnn(-c3ccccc3)c2C)cnc1C1=CCC(N(C)C(=O)C(C)(C)C)CC1` (stereo not shown) [Example D214], the inhibition at 1 µM against hERG stood at 10%. In addition, in data set [1], the half-inhibitory concentration (IC50) worked out at 18.7 nM.
`Cc1cc(NC(=O)c2nn(C)c3ccccc23)cnc1C1=CCC(N(C)C(=O)C(C)(C)C)CC1` (stereo not shown) [Example D217] had an inhibition at 1 µM on hERG of 26.7%. For the same compound, in data set [1], the IC50 stood at 84.4 nM.
The corresponding values for `Cc1cc(NC(=O)c2cnn(-c3ccc(F)cc3)c2C)cnc1C1=CCC(N(C)C(=O)C(C)C)CC1` (stereo not shown) [Example D219, 1-(4-Fluorophenyl)-N-{6-[4-(N-isobutyryl-N-methylamino)cyclohex-1-en-1-yl]-5-methylpyridin-3-yl}-5-methyl-1H-pyrazole-4-carboxamide] are 11.4% and 59.5 nM.
The corresponding values for `Cc1cc(NC(=O)c2cnn(-c3ccc(C(F)(F)F)cn3)c2C)cnc1C1=CCC(C(=O)N(C)C)CC1` (stereo not shown) [Example D221, N-[6-(4-N,N-Dimethylcarbamoylcyclohex-1-en-1-yl)-5-methylpyridin-3-yl]-5-methyl-1-[5-(trifluoromethyl)pyridin-2-yl]-1H-pyrazole-4-carboxamide] are 20.1% and 31.4 nM.
In the case of `Cc1cc(NC(=O)c2cnn(-c3ccc(C(F)(F)F)cn3)c2C)cnc1C1=CCC(NC(=O)C(C)(C)C)CC1` (stereo not shown) [Example D224], the inhibition at 1 µM at hERG came to 19.5%. The 50% inhibitory concentration (IC50) in data set [1] was determined as 141 nM.
On to `Cc1cc(NC(=O)c2cnn(-c3ccc(C(F)(F)F)cn3)c2C)cnc1C1=CCC2(CC1)OCCO2` [Example D234], for which, at hERG, the inhibition at 1 µM was found to be 5.6%. Further, the IC50 in data set [1] is 55.6 nM.
On hERG, `Cc1c(C(=O)Nc2ccc(C3CCC4(CC3)OCCO4)nc2)cnn1-c1ccc(C(F)(F)F)cn1` [Example D237] had an inhibition at 1 µM of 3.6%. In addition, the concentration for half-maximal inhibition (IC50) in data set [1] was 50.3 nM.
`Cc1cc(NC(=O)c2cnn(-c3ccc(C(F)(F)F)cn3)c2C)cnc1C1CCC2(CC1)OCCO2` [Example D238] showed an inhibition at 1 µM on hERG of 5%. Moreover, the 50% inhibitory concentration (IC50) in data set [1] came out at 49.1 nM.
`Cc1cc(NC(=O)c2cnn(-c3ccc(C(F)(F)F)cn3)c2C)cnc1C1=CCC(N(C)C(=O)OC(C)(C)C)CC1` (stereo not shown) [Example D249, N-methyl-{4-[3-methyl-5-({5-methyl-1-[5-(trifluoromethyl)pyridin-2-yl]-1H-pyrazole-4-carbonyl}-amino)pyridin-2-yl]cyclohex-3-en-1-yl}carbamoic acid carbamic acid tert-butyl ester] yielded an inhibition at 1 µM at hERG of 36.9%. Moreover, the 50% inhibitory concentration (IC50) in data set [1] turned out to be 131 nM.
Turning to `Cc1c(C(=O)Nc2ccc([C@]3(C#N)CC[C@@](C)(O)CC3)nc2)cnn1-c1ccc(C(F)(F)F)cn1` [Example D254], at hERG, 1 µM produced 6.6% inhibition. Further, in data set [1], the half-maximal inhibitory concentration (IC50) is 146 nM.
For the compound `Cc1cc(NC(=O)c2cnn(-c3ccc(F)cc3)c2C)cnc1C1=CCC(N(C)C(=O)C(C)(C)C)CC1` (stereo not shown) [Example D260], the inhibition at 1 µM on hERG was 16.8%. The IC50 in data set [1] turned out to be 4.02 nM.
In turn, `Cc1ccc(-n2ncc(C(=O)Nc3cnc(C4=CCC(N(C)C(=O)C(C)(C)C)CC4)c(C)c3)c2C)nc1` (stereo not shown) [Example D264] returned an inhibition at 1 µM at hERG of 7.5%. The IC50 in data set [1] came out at 17.4 nM.
Consider `Cc1cc(NC(=O)c2cnn(-c3ccc(C(F)(F)F)cn3)c2C)cnc1C1=CCC(N(C)C(=O)C(F)(F)F)CC1` (stereo not shown) [Example D265, 5-Methyl-N-(5-methyl-6-{4-[N-methyl-N-(2,2,2-trifluoroacetyl)amino]cyclohex-1-en-1-yl}pyridin-3-yl)-1-[5-(trifluoromethyl)pyridin-2-yl]-1H-pyrazole-4-carboxamide], for which, at hERG, the inhibition at 1 µM was determined as 35.9%. Further, the half-inhibitory concentration (IC50) in data set [1] was 4.91 nM.
With `Cc1cc(NC(=O)c2cnn(-c3ccc(C(F)(F)F)cn3)c2C)cnc1C1=CCC(C(=O)NC(C)(C)C)CC1` (stereo not shown) [Example D268], 1 µM produced 9.8% inhibition at hERG. Also, the IC50 in data set [1] came out at 155 nM.
For the compound `Cc1cc(NC(=O)c2cnn(-c3ccc(C4CC4)cn3)c2C)cnc1C1=CCC(C(=O)NC(C)(C)C)CC1` (stereo not shown) [Example D269], at hERG, testing at 1 µM gave an inhibition of 14.1%. Besides, the half-inhibitory concentration (IC50) in data set [1] worked out at 207 nM.
The corresponding values for `Cc1c(C(=O)Nc2ccc([C@]3(C#N)CC[C@]4(C=CCO4)CC3)nc2)cnn1-c1ccc(C(F)(F)F)cn1` [Example D270] are 0.5% and 55.8 nM.
As to `CC[C@]1(O)CC[C@](C#N)(c2ccc(NC(=O)c3cnn(-c4ccc(Cl)cc4)c3C)cn2)CC1` [Example D275], 1 µM produced 14.4% inhibition at hERG. Moreover, the 50% inhibitory concentration (IC50) in data set [1] is 55.3 nM.
As to `CC[C@]1(O)CC[C@](C#N)(c2ccc(NC(=O)c3cnn(-c4ccc(C(F)(F)F)cn4)c3C)cn2)CC1` [Example D276], at hERG, the inhibition at 1 µM was 8.9%. Moreover, the IC50 in data set [1] is 71.2 nM.
As to `Cc1c(C(=O)Nc2ccc([C@]3(C#N)CC[C@]4(CCCO4)CC3)nc2)cnn1-c1ccc(C(F)(F)F)cn1` [Example D278, N-[6-(c-8-Cyano-r-1-oxaspiro[4.5]decan-8-yl)pyridin-3-yl]-5-methyl-1-[5-(trifluoromethyl)-pyridin-2-yl]-1H-pyrazole-4-carboxamide], 1 µM produced 13.6% inhibition against hERG. Further, the concentration for half-maximal inhibition (IC50) in data set [1] amounted to 50.2 nM.
The corresponding values for `Cc1ccc(-n2ncc(C(=O)Nc3ccc([C@]4(C#N)CC[C@]5(CCCO5)CC4)nc3)c2C)cc1` [Example D279] are 12.8% and 112 nM.
As to `Cc1c(C(=O)Nc2cnc(C3=CCC(N4CCOCC4)CC3)c(F)c2)cnn1-c1ccc(C(F)(F)F)cn1` (stereo not shown) [Example D282], the inhibition at 1 µM at hERG amounted to 11.9%. Also, in data set [1], the half-inhibitory concentration (IC50) was 174 nM.
Regarding `Cc1c(C(=O)Nc2ccc([C@]3(C#N)CC[C@@H](N(C)C(=O)C(C)(C)C)CC3)nc2)cnn1-c1ccc(C(F)(F)F)cn1` [Example D288, N-(6-{r-1-Cyano-c-4-[N-(2,2-dimethylpropanoyl)-N-methylamino]cyclohexan-1-yl}pyridin-3-yl)-5-methyl-1-[5-(trifluoromethyl)pyridin-2-yl]-1H-pyrazole-4-carboxamide], the inhibition at 1 µM at hERG worked out at 5.9%. In addition, the half-inhibitory concentration (IC50) in data set [1] came out at 5.38 nM.
`Cc1c(C(=O)Nc2ccc([C@]3(C#N)CC[C@@H](N(C)C(=O)C(C)C)CC3)nc2)cnn1-c1ccc(C(F)(F)F)cn1` [Example D289, N-{6-[r-1-Cyano-c-4-(N-isobutyryl-N-methylamino)cyclohexan-1-yl]pyridin-3-yl}-5-methyl-1-[5-(trifluoromethyl)pyridin-2-yl]-1H-pyrazole-4-carboxamide] displayed an inhibition at 1 µM against hERG of 11.6%. Further, the half-inhibitory concentration (IC50) in data set [1] amounted to 87.2 nM.
`Cc1nc(-n2ncc(C(=O)Nc3ccc([C@]4(C#N)CC[C@@H](N5CCOCC5)CC4)nc3)c2C)ccc1C(F)(F)F` [Example D299] displayed an inhibition at 1 µM on hERG of 40.6%. Also, in data set [1], the IC50 is 112 nM.
